Source: a melting point compilation (Tetko et al.; mined from patent text by program, amines drawn as free bases though some values may be those of a salt)

| Compound | melting point |
| --- | --- |
| CC(=O)N[C@H]1CCC(=O)N2CCC[C@@H](C(=O)O)N2C1=O | > 250 °C |
| Brc1ccc2c(c1)CCC=C2n1ccnc1 | 58 to 64 °C |
| Cn1cnc(-c2ccc(NC(=C3C(=O)Oc4ccccc43)c3ccc(C(C)(C)N)cc3)cc2)c1 | > 280 °C |
| O=C(NC1CCCCC1)c1c(O)c2cccnc2n(Cc2ccccc2)c1=O | 143 °C |
| COc1cc2c(cc1OC)C1=C(C#N)SC(C)C(=O)N1CC2 (stereo not given) | 170 to 171 °C |
| CCOC(=O)ON(C(N)=O)[C@H]1C[C@@H](c2ccc(F)cc2)C1 | 124 to 126 °C |
| CC(=O)c1ccc(OCCCOc2ccc(C(=O)C(=O)O)cc2)cc1O | 133 to 135 °C |
| CCCCCCCCCCCCCCC(O)(CCCCC(=O)O)CCCCC(=O)O | 79 to 80 °C |
| CCCC(NOCC)=C1C(=O)CC(c2cc3ccccc3s2)CC1=O (stereo not given) | 73 to 76 °C |
| CC(C)(C)C(=O)c1ccc(CC(=O)O)cc1 | 111 to 112 °C |
| CC(=O)COc1cc2oc(=O)cc(C)c2cc1C | 190 °C |
| O=C(NCc1ccccc1O)c1[nH]c2ccc(Cl)cc2c1S(=O)(=O)c1ccccc1 | 243 to 244 °C |
| CCOC(=O)Cc1c(Br)cnc2c([N+](=O)[O-])cccc12 | 163 to 164 °C |
| Cc1cc(C)c(NC(=O)CCCCCl)c(Cl)c1 | 80.6 to 82.9 °C |
| CCOC(=O)c1cc2nc(C(F)(F)F)ccc2n1Cc1ccncc1 | 130 to 131 °C |
| COC(=O)C1=C(O)c2ccccc2S(=O)(=O)N1 | 173 to 175 °C |
| CC1(C)OC(=O)Nc2ccc(-c3ccc(S(N)(=O)=O)s3)cc21 | 258 to 260 °C |
| OC12N=C(c3ccccc3)SC1(Br)Cc1cc(Cl)ccc12 (stereo not given) | 148 °C |
| COc1ccc(-c2cnc3cc4cnn(CC#N)c4cc3n2)cc1F | 248 to 252 °C |
| O=C(c1sc2ccc(C(F)(F)F)cc2c1O)N(C=Cc1ccccc1)C=Cc1ccccc1 | 165 to 167 °C |
| Oc1ccc2c(Cl)cc(-c3ccccc3)nc2c1 | 190 to 192 °C |
| CCCCNC1CC(C)(C)N(CCO)C(C)(C)C1 | 106 to 111 °C |
| O=C(O)c1cncc(-c2cnc3c(c2)N(Cc2cc(F)ccc2F)CCN3)c1 | 255 to 260 °C |
| O=C1N(Cc2ccc(Cl)s2)c2ccccc2C1(O)c1cc(OCc2ccccc2)ccc1O (stereo not given) | 174 to 175 °C |
| Cc1c(C)c2c(c(C)c1O)CCC(C)(C(=O)NC1CCN(c3ccc(NC(=N)c4cccs4)cc3)C1)O2 (stereo not given) | 135 to 138 °C |

| Compound | melting point |
| --- | --- |
| CCCC1=C(C#N)C(c2ccccc2Cl)c2c(n[nH]c2-c2ccc3ccccc3c2)N1 (stereo not given) | > 270 °C |
| CCCCc1nc2c(N)nc3cccnc3c2n1CCNC(=O)Cc1cccc(O)c1 | 208 to 210 °C |
| COc1ccc2c(c1)[C@@H](O)[C@H](Br)CO2 (relative stereo) | 67 to 72 °C |
| COc1cc(OC)cc(SSc2cc(OC)cc(OC)c2)c1 | 152 to 160 °C |
| CC(=O)NCCNc1ccc(NCCNC(C)=O)c2c1C(=O)c1c(O)ccc(O)c1C2=O | 273 to 274 °C |
| CC(C)(C)c1cc(C(O)C#Cc2ccc(C(=O)O)cc2)ccc1N1CCCCC1 (stereo not given) | 112 °C |
| CCOC(=O)c1ncc2[nH]c3ccc(CC)cc3c2c1C | 158 to 163 °C |
| O=C1CN(c2cccc(Oc3ccccc3)c2)NC(=O)N1 | 172 to 173 °C |
| O=C(O)c1coc2ccc(OCc3ccccc3)cc2c1=O | 170 to 173 °C |
| CCOC(=O)[C@H](Cc1ccc(-c2c(OC)cc(CO)cc2OC)cc1)NC(=O)c1c(Cl)cccc1Cl | 121 °C |
| CSC1C(=O)Nc2cccc(-c3ccccc3)c21 (stereo not given) | 182 to 185 °C |
| N#CN=C(Nc1cccc(F)c1)NC(NC(=O)c1ccc(Cl)cc1)c1ccsc1 (stereo not given) | 166 to 168 °C |
| O=C(CCCN1CCCCC1)c1ccc2[nH]c3ccc(C(=O)CCCN4CCCCC4)cc3c2c1 | 171 to 173 °C |
| CS(=O)(=O)c1ccc(-c2cnn(-c3cccc(Cl)c3)c(=O)c2SCc2ccco2)cc1 | 140 to 149 °C |
| Fc1ccc(N2CCN(Cc3c[nH]c4ncccc34)CC2)cc1 | 214 to 216 °C |
| CC(C)COC(=O)N[C@@H](Cc1ccccc1)C(=O)CSCc1ccco1 | 58 to 59 °C |
| O=C1CCCSC1C(=O)c1ccc([N+](=O)[O-])cc1Cl (stereo not given) | 59.5 to 62.5 °C |
| N#Cc1c(Br)c(C(F)(F)F)n(CBr)c1-c1ccc(Cl)cc1 | 131 to 132 °C |
| CC(C)c1cc(C(C)(C)CCP(=O)(O)O)cc(C(C)C)c1O | 179 to 182 °C |
| CC(C#Cc1ccc(Cl)cc1)N(O)C(N)=O (stereo not given) | 159 to 161 °C |
| OC1(c2cccc(Cl)c2)CCN(CCCc2nnc3n2CCCCC3)CC1 | 146 to 148 °C |
| O=C(NCc1ccc(Cl)cc1)c1cn(CCN2CCCC2)c2sc(CN3CCOCC3)cc2c1=O | 178 to 180 °C |
| CCCN1C(=O)N2C[C@@H](Cc3ccccc3)N=C2c2c1nc(SC)n2COC | 110 to 112 °C |
| CS(=O)C1C(=O)Nc2ccc(C(F)(F)F)cc21 (stereo not given) | 141 to 142 °C |
| NC(=O)/C=C1/c2cc(F)ccc2CC1Br (stereo not given) | 162 to 163 °C |

| Compound | melting point |
| --- | --- |
| O=C(c1ccco1)c1cnn2c(-c3cccnc3)ccnc12 | 228 to 229 °C |
| CC(=O)Nc1ccc(-c2c(NC(C)=O)n(C)c3ccccc23)cc1 | 234 to 237 °C |
| Brc1ccc(-c2cc3cc(-c4ccccc4)ccc3o2)cc1 | 90 to 92 °C |
| O=C(O)C1=Cc2cccc(-c3ccccc3)c2OC1C(F)(F)F (stereo not given) | 172 to 175 °C |
| Cc1ccc(O)cc1C=O | 116 to 118 °C |
| Cc1cc(O)ccc1-c1nc2cc(O)cc(Br)c2o1 | 120 to 135 °C |
| COc1ccc(N2CCN(CCC3OCCc4cc(C#N)ccc43)CC2)cc1 (stereo not given) | 86 to 88 °C |
| CC(C)(C)NC(=O)c1cccc(C(=O)O)c1O | 191 to 195 °C |
| COc1ccc2nc(C(=O)NCc3ccc(C(=O)O)cc3)[nH]c(=O)c2c1 | 287 to 288 °C |
| CCC[C@H]1C(=O)N(S(=O)(=O)c2cccc3ccccc23)[C@H]2CCN(S(C)(=O)=O)[C@H]12 (relative stereo) | 185 to 187 °C |
| COc1ccc(Cn2nnc(-c3cccc(C(=O)NCc4ccc(C(=O)O)cc4)c3)n2)cc1 | 202 to 205 °C |
| CCc1cn(C2CC(O)C(CS(=O)(=O)Cc3ccccc3)O2)c(=O)[nH]c1=O (stereo not given) | 232 to 233 °C |
| C#CCN1C(=O)C(C)(C)NC(C)(C)C1=O | 77 to 80 °C |
| CCOC(=O)N(c1ccccc1-n1nc(C(=O)O)nc1CCl)c1cccc(C)c1C | 188 to 190 °C |
| O=C1N(C2=NCCS2)c2ccccc2C12SCCS2 | 154 to 157 °C |
| O=C(Cc1ccc(Cl)cc1)N1CCc2cc(S(=O)(=O)N3CCN(c4cccc(Cl)c4)CC3)ccc21 | 186 to 187 °C |
| O=C(NCC12CCCN(CCC1)C2)c1c[nH]c2ccccc12 | 139 to 142 °C |
| COC(=O)c1ccc2cc(C(O)c3ccc4c(c3)C3(C)C5(C)CCC(C5)C3(C)O4)ccc2c1 (stereo not given) | 140 to 141 °C |
| O=C(O)CC(c1ccc(F)cc1)c1ccc(F)cc1 | 106 to 107 °C |
| CC(C)(Oc1ccc(CCC(=O)c2ccc(-c3ccc(C(F)(F)F)cc3)s2)cc1F)C(=O)O | 150 to 151 °C |
| CNC(=O)c1cccc(NC(=O)Cc2cccc(O)c2)c1 | 163 °C |
| CCC(COC(=O)c1ccc[nH]1)C1CN(C)C2Cc3cn(C)c4cccc(c34)C2(OC)C1 (stereo not given) | 96 to 98 °C |
| Cc1c(C(=O)c2ccc3ccccc3c2)cccc1[N+](=O)[O-] | 100 to 102 °C |
| O=C1c2ccccc2C(=O)N1OCc1cc(=O)c(OCc2ccccc2)co1 | 172 °C |
| O=C(O)C1CCCCC1(O)C(=O)c1ccccc1 (stereo not given) | 165 to 167 °C |

| Compound | melting point |
| --- | --- |
| N#CN1CCc2cccc(Cl)c2CC1 | 81 to 82 °C |
| CCOc1c(C(=O)c2ccccc2)cnc2[nH]ncc12 | 195 to 197 °C |
| CC(=O)Oc1c(C2CCN(CCCCNC(=O)c3ccc(NC(=O)c4ccc(Cl)cc4)cc3)CC2)ccc2c1CCCC2 | 254 °C |
| O=C(O)c1ccc(Cc2ccc(O)cc2)cn1 | 213 to 215 °C |
| CN(C)CC(c1ccccc1)c1nnc2n1-c1ccc(I)cc1C(c1ccccc1)=NC2 (stereo not given) | 192 to 194 °C |
| COc1cc2c(c(OC)c1OC)-c1ccc(OC(=O)N3CCC(N4CCCCC4)CC3)cc1C(NC(C)=O)CC2 (stereo not given) | 168 to 175 °C |
| CC(=O)OC(C)c1ccc2occ(C#N)c(=O)c2c1 (stereo not given) | 148 to 149 °C |
| O=C1C(=Cc2ccc(-c3cccs3)s2)CCc2cc(OCCn3ccnc3)ccc21 | 180 to 181 °C |
| CC(=S)NCC1CN(c2ccc(N3CCC(=CC#N)C(F)C3)c(F)c2)C(=O)O1 (stereo not given) | 137 to 138 °C |
| Cc1cccc(-c2n[nH]cc2-c2ccc(F)c(-c3c[nH]cn3)c2)n1 | 229 to 233 °C |
| O=C(O)C1CN(S(=O)(=O)c2ccc3cc(Cl)ccc3c2)CCN1C(=O)C1CCN(c2ccncc2)CC1 (stereo not given) | 215 to 220 °C |
| CCn1cc(S(=O)(=O)NC(=O)c2cn3cc(C(F)(F)F)cc(Cl)c3n2)c(C)n1 | 189 to 190 °C |
| CC(C)(C)C(=O)c1cnn2c1NCCC2 | 169 to 170 °C |
| CCOC(OCC)C(N)=C(c1ccncc1N)c1ccccc1Cl | 94 to 95 °C |
| Cc1noc(NS(=O)(=O)c2ccc(-c3ccc(C(=O)O)cc3)s2)c1Br | 219 to 228 °C |
| O=C(O)C1CCCC2c3ccccc3CC12 (stereo not given) | 138 to 139 °C |
| CC1=C(C(=O)OC(C)(C)C)C(c2ccccc2Cl)c2c[nH]nc2N1 (stereo not given) | 207 °C |
| CCN1c2ncc(CCc3ccnc(O)c3)cc2C(=O)N(C)c2ccc(Cl)nc21 | 243 to 244 °C |
| Cn1ccnc1COc1ccccc1N | 114 to 116 °C |
| COc1cc(C(F)(F)F)cc(OC)c1-c1ccc(C[C@H](NC(=O)c2c(Cl)cccc2Cl)C(=O)O)cc1 | 231 to 232 °C |
| O=C(O)COc1c2ccccc2c(-c2cc(Br)c(OC(Cc3ccccc3)C(=O)O)c(Br)c2)c2c1sc1ccccc12 (stereo not given) | 110 to 120 °C |
| COCc1cc(-c2ncc3[nH]c4ccc(Cl)c(Cc5ccc(Cl)cc5)c4c3c2COC)no1 | 198 to 200 °C |
| CCOC(=O)c1c(OCC)cc(C=O)cc1OCC | 117 to 119 °C |
| CC(C)N1C(=O)NC(NC2CC2)NC1=O | 237 to 239 °C |
| COc1ccccc1Cc1ccc(-c2cnn3c(O)ncnc23)cc1 | 246 to 256 °C |
